Experimental data from PubChem BioAssay (NCI).
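Where inhibition never reached the appropriate level, the endpoint shown equals the highest concentration tested. Otherwise, values were interpolated linearly from a five-concentration, 48-hour dose response in 96-well plates. At the TGI there is no net growth.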

Assays:
Experiment in all cases: DTP human tumour cell line panel, 48 h
KM20L2 colon = tested on: KM20L2 colon
SK-MEL-2 melanoma = tested on: SK-MEL-2 melanoma
K-562 leukemia = tested on: K-562 leukemia
SK-MEL-28 melanoma = tested on: SK-MEL-28 melanoma
SF-295 CNS = tested on: SF-295 CNS
RXF-631 renal = tested on: RXF-631 renal
HOP-62 NSCLC = tested on: HOP-62 NSCLC
HOP-18 NSCLC = tested on: HOP-18 NSCLC
OVCAR-8 ovarian = tested on: OVCAR-8 ovarian
HCT-116 colon = tested on: HCT-116 colon
KM12 colon = tested on: KM12 colon
TK-10 renal = tested on: TK-10 renal
LXFL 529 NSCLC = tested on: LXFL 529 NSCLC
DMS 114 small cell lung = tested on: DMS 114 small cell lung
M19-MEL melanoma = tested on: M19-MEL melanoma
CAKI-1 renal = tested on: CAKI-1 renal
OVCAR-5 ovarian = tested on: OVCAR-5 ovarian
SW-620 colon = tested on: SW-620 colon
SN12C renal = tested on: SN12C renal
OVCAR-4 ovarian = tested on: OVCAR-4 ovarian
OVCAR-3 ovarian = tested on: OVCAR-3 ovarian
SF-268 CNS = tested on: SF-268 CNS
M14 melanoma = tested on: M14 melanoma
IGROV1 ovarian = tested on: IGROV1 ovarian
NCI-H522 lung = tested on: NCI-H522 lung
COLO 205 colon = tested on: COLO 205 colon
UACC-62 melanoma = tested on: UACC-62 melanoma
CCRF-CEM leukemia = tested on: CCRF-CEM leukemia
ACHN renal = tested on: ACHN renal
XF 498 CNS = tested on: XF 498 CNS
NCI-H460 lung = tested on: NCI-H460 lung
UO-31 renal = tested on: UO-31 renal
HCT-15 colon = tested on: HCT-15 colon
LOX IMVI melanoma = tested on: LOX IMVI melanoma
A549 NSCLC = tested on: A549 NSCLC
SK-OV-3 ovarian = tested on: SK-OV-3 ovarian
786-0 renal = tested on: 786-0 renal
U251 CNS = tested on: U251 CNS
SF-539 CNS = tested on: SF-539 CNS
SR leukemia = tested on: SR leukemia
MALME-3M melanoma = tested on: MALME-3M melanoma
EKVX NSCLC = tested on: EKVX NSCLC
SK-MEL-5 melanoma = tested on: SK-MEL-5 melanoma
DMS 273 small cell lung = tested on: DMS 273 small cell lung
SNB-19 CNS = tested on: SNB-19 CNS
SNB-75 CNS = tested on: SNB-75 CNS
HT29 colon = tested on: HT29 colon
HOP-92 NSCLC = tested on: HOP-92 NSCLC
NCI-H226 lung = tested on: NCI-H226 lung
MOLT-4 leukemia = tested on: MOLT-4 leukemia
RPMI-8226 leukemia = tested on: RPMI-8226 leukemia
SNB-78 CNS = tested on: SNB-78 CNS
RXF 393 renal = tested on: RXF 393 renal
HCC-2998 colon = tested on: HCC-2998 colon
UACC-257 melanoma = tested on: UACC-257 melanoma
HL-60(TB) leukemia = tested on: HL-60(TB) leukemia
A498 renal = tested on: A498 renal
NCI-H23 lung = tested on: NCI-H23 lung

Structure (SMILES): C=C(C)C(=O)OC1C/C(CO)=C\C(O)C/C(C)=C/C2OC(=O)C(=C)C21 (configuration not stated)
- TGI (KM20L2 colon): 97.3 µM
- TGI (SK-MEL-2 melanoma): 36.6 µM
- TGI (K-562 leukemia): 58.2 µM
- TGI (SK-MEL-28 melanoma): 33.4 µM
- TGI (SF-295 CNS): > 100 µM
- TGI (RXF-631 renal): 36.7 µM
- TGI (HOP-62 NSCLC): > 100 µM
- TGI (HOP-18 NSCLC): 83.4 µM
- TGI (OVCAR-8 ovarian): 49.5 µM
- TGI (HCT-116 colon): 37.1 µM
- TGI (KM12 colon): 38.8 µM
- TGI (TK-10 renal): 41.2 µM
- TGI (LXFL 529 NSCLC): 32.2 µM
- TGI (DMS 114 small cell lung): 60.8 µM
- TGI (M19-MEL melanoma): 92.7 µM
- TGI (CAKI-1 renal): 58.7 µM
- TGI (OVCAR-5 ovarian): > 100 µM
- TGI (SW-620 colon): 33.3 µM
- TGI (SN12C renal): 38.8 µM
- TGI (OVCAR-4 ovarian): 63.4 µM
- TGI (OVCAR-3 ovarian): 59.4 µM
- TGI (SF-268 CNS): 57.8 µM
- TGI (M14 melanoma): 40.6 µM
- TGI (IGROV1 ovarian): > 100 µM
- TGI (NCI-H522 lung): 30.3 µM
- TGI (COLO 205 colon): 38.3 µM
- TGI (UACC-62 melanoma): 39.1 µM
- TGI (CCRF-CEM leukemia): 36.6 µM
- TGI (ACHN renal): 48.4 µM
- TGI (XF 498 CNS): 29.3 µM
- TGI (NCI-H460 lung): 35 µM
- TGI (UO-31 renal): > 100 µM
- TGI (HCT-15 colon): 29.6 µM
- TGI (LOX IMVI melanoma): 35 µM
- TGI (A549 NSCLC): > 100 µM
- TGI (SK-OV-3 ovarian): > 100 µM
- TGI (786-0 renal): 37.1 µM
- TGI (U251 CNS): > 100 µM
- TGI (SF-539 CNS): 46.3 µM
- TGI (SR leukemia): 50.5 µM
- TGI (MALME-3M melanoma): 39 µM
- TGI (EKVX NSCLC): 69.1 µM
- TGI (SK-MEL-5 melanoma): 44.1 µM
- TGI (DMS 273 small cell lung): > 100 µM
- TGI (SNB-19 CNS): > 100 µM
- TGI (SNB-75 CNS): > 100 µM
- TGI (HT29 colon): 34.1 µM
- TGI (HOP-92 NSCLC): 38.2 µM
- TGI (NCI-H226 lung): 79.5 µM
- TGI (MOLT-4 leukemia): 56.2 µM
- TGI (RPMI-8226 leukemia): 45.6 µM
- TGI (SNB-78 CNS): > 100 µM

Structure (SMILES): O=C(CCc1nc(=S)[nH][nH]1)Nc1cc(Cl)c(Cl)cc1Cl
- TGI (RXF 393 renal): > 100 µM
- TGI (KM20L2 colon): > 100 µM
- TGI (SK-MEL-2 melanoma): > 100 µM
- TGI (K-562 leukemia): > 100 µM
- TGI (SK-MEL-28 melanoma): > 100 µM
- TGI (SF-295 CNS): > 100 µM
- TGI (RXF-631 renal): > 100 µM
- TGI (HOP-62 NSCLC): > 100 µM
- TGI (HCC-2998 colon): > 100 µM
- TGI (UACC-257 melanoma): > 100 µM
- TGI (OVCAR-8 ovarian): > 100 µM
- TGI (HL-60(TB) leukemia): > 100 µM
- TGI (HCT-116 colon): > 100 µM
- TGI (KM12 colon): > 100 µM
- TGI (TK-10 renal): > 100 µM
- TGI (LXFL 529 NSCLC): > 100 µM
- TGI (DMS 114 small cell lung): > 100 µM
- TGI (M19-MEL melanoma): > 100 µM
- TGI (CAKI-1 renal): > 100 µM
- TGI (OVCAR-5 ovarian): > 100 µM
- TGI (SW-620 colon): > 100 µM
- TGI (SN12C renal): > 100 µM
- TGI (OVCAR-4 ovarian): > 100 µM
- TGI (OVCAR-3 ovarian): > 100 µM
- TGI (SF-268 CNS): > 100 µM
- TGI (M14 melanoma): > 100 µM
- TGI (IGROV1 ovarian): > 100 µM
- TGI (NCI-H522 lung): > 100 µM
- TGI (A498 renal): > 100 µM
- TGI (COLO 205 colon): > 100 µM
- TGI (UACC-62 melanoma): > 100 µM
- TGI (CCRF-CEM leukemia): > 100 µM
- TGI (ACHN renal): > 100 µM
- TGI (XF 498 CNS): > 100 µM
- TGI (NCI-H460 lung): > 100 µM
- TGI (UO-31 renal): > 100 µM
- TGI (HCT-15 colon): > 100 µM
- TGI (LOX IMVI melanoma): > 100 µM
- TGI (A549 NSCLC): > 100 µM
- TGI (SK-OV-3 ovarian): > 100 µM
- TGI (786-0 renal): > 100 µM
- TGI (U251 CNS): > 100 µM
- TGI (SF-539 CNS): > 100 µM
- TGI (MALME-3M melanoma): > 100 µM
- TGI (NCI-H23 lung): > 100 µM
- TGI (SK-MEL-5 melanoma): > 100 µM
- TGI (DMS 273 small cell lung): > 100 µM
- TGI (SNB-19 CNS): > 100 µM
- TGI (SNB-75 CNS): > 100 µM
- TGI (HT29 colon): > 100 µM
- TGI (HOP-92 NSCLC): > 100 µM
- TGI (NCI-H226 lung): > 100 µM
- TGI (MOLT-4 leukemia): > 100 µM
- TGI (RPMI-8226 leukemia): > 100 µM
- TGI (SNB-78 CNS): > 100 µM
